The target in the experiment is T1, human hERG channels (Kv11.1) (Homo sapiens, UniProt Q12809).
T1 construct: host or cells: CHO cells (hERG-Duo cells)
The experiment can be described thus: hERG assay, automated planar patch-clamp in CHO cells stably expressing human hERG channels. Type of experiment: cell-based. The settings on record: peak tail-current, QPatch HTX whole-cell voltage-clamp, room temperature, 0.12-30 μM. How it is done:
Pharmacological activity of the compounds at cardiac hERG channels (Kv11.1) was assessed functionally using an automated planar patch-clamp electrophysiology station. CHO cells stably expressing human hERG channels were grown under the permanent pressure of the appropriate selection antibiotics according to the specifications of the manufacturer (hERG-Duo cells, B'SYS GmbH, Switzerland). Cells were harvested below 80% confluence, suspended in serum-free medium and dispensed automatically to multi-well recording plates for whole-cell voltage-clamp recordings on a QPatch HTX workstation (Sophion, BiolinScientific AB, Denmark). The composition of the extracellular recording buffer was (in mM): NaCl, 150; KCl, 4; CaCl2), 2; MgCl2, 1; HEPES, 10; and glucose, 10; adjusted to pH 7.4 with NaOH. The intracellular buffer contained (in mM): KCl, 120; CaCl2), 5; MgCl2, 2; EGTA, 10; HEPES, 10; and Mg-ATP, 4; adjusted to pH 7.2 with KOH. The voltage protocol used to activate hERG currents consisted in a first depolarizing step from a −80 mV holding potential to +20 mV for 5 s followed by a second repolarizing step to −50 mV. Cycle time was 15 s, recordings were performed at room temperature and drug effects were evaluated on the peak tail-current elicited by the second repolarizing step. For pharmacology, stock solutions of the test articles at 10 mM were prepared in DMSO. A 6-point concentration-range was prepared in polypropylene micro-titer plates by first serially diluting the initial 10 mM stock 1:3 in DMSO and then diluting each of the 6 intermediate working solutions 1:333 in extracellular recording medium containing 0.06% Pluronic F-68 (Gibco/Thermofischer, France). Final concentrations of test articles (i.e. 0.12 μM, 0.37 μM, 1.1 μM, 3.3 μM, 10 μM and 30 μM) were applied cumulatively to the cells in ascending order. A positive control (terfenadine, 10 μM) was added at the end of each recording sequence. Time-course of hERG tail current amplitude was analyzed off-line following optional leak current substraction and compensation of current rundown as needed. Half-maximal inhibitory concentrations (IC50) were obtained by fitting current amplitudes measured at the end of each exposure period and normalized with respect to pre-drug baseline with a four parameter sigmoidal equation.
For orientation: Block of hERG is tested as a sign of cardiac risk.

Usually IC50 stands for the concentration that gives 50% inhibition. High values mean a need for much substance, low ones inhibition by little substance.

T1 sequence (Q12809 whole entry): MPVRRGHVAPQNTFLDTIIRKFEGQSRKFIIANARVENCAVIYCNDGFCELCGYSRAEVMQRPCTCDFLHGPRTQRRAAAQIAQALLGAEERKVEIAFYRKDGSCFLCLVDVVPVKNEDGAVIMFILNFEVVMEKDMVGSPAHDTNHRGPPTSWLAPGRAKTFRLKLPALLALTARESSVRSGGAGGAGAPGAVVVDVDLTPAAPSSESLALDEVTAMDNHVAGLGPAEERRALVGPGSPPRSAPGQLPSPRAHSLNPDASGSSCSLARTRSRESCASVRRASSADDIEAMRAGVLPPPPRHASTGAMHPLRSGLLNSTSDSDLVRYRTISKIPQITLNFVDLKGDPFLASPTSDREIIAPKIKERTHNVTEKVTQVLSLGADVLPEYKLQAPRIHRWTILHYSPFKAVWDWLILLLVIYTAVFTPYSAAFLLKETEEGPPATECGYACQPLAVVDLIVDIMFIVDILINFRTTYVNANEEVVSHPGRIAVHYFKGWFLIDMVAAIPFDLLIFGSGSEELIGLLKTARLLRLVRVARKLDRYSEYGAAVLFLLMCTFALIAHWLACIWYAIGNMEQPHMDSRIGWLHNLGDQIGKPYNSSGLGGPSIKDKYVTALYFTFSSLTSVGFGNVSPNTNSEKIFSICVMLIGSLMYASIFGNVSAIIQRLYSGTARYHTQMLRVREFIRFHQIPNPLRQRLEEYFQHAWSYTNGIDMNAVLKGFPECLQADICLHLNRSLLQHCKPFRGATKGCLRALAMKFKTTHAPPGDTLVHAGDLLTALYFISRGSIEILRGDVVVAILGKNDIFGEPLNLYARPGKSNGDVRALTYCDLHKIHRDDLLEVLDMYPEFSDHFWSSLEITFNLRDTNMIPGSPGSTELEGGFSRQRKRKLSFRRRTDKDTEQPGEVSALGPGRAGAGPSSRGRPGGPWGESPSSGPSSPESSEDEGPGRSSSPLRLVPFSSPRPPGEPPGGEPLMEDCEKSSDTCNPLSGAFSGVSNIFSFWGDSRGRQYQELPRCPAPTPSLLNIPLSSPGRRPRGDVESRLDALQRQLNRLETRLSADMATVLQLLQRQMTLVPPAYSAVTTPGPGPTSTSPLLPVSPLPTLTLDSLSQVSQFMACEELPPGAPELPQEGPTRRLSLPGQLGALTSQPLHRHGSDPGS

As to `C[C@@H]1CC[C@@]1(N)c1ncc(-c2ccc3nc4n(c3c2)[C@@H]2C[C@H]4NC(=O)c3cccc(OC(F)F)c32)cc1F` (single isomer, unassigned) [Example 5, (7R,14R)-11-{6-[(1 S,2R)-1-Amino-2-methylcyclobutyl]-5-fluoropyridin-3-yl}-1-(difluoromethoxy)-6,7-dihydro-7,14-methanobenzimidazo[1,2-b][2,5]benzodiazocin-5(14M-one or (7R,14R)-11-{6-[(1R,2S)-1-Amino-2-methylcyclobutyl]-5-fluoropyridin-3-yl}-1-(difluoromethoxy)-6,7-dihydro-7,14-methanobenzimidazo[1,2-b][2,5]-benzodiazocin-5(14H)-one], the half-inhibitory concentration (IC50) is over 30 µM. For the molecule `CN1C(=O)c2cccc(OC(F)F)c2[C@H]2C[C@@H]1c1nc3ccc(-c4cnc([C@]5(N)C[C@](O)(C(F)(F)F)C5)c(F)c4)cc3n12` (single isomer, unassigned) [Example 11], the IC50 was over 30 µM. In turn, `CN1C(=O)c2cccc(OC(F)F)c2[C@H]2C[C@@H]1c1nc3ccc(-c4cnc([C@]5(N)C[C@](O)(C(F)(F)F)C5)nc4)cc3n12` (single isomer, unassigned) [Example 12] yielded an IC50 of over 30 µM. In the case of `C[C@]1(C#N)C[C@](N)(c2ncc(-c3ccc4nc5n(c4c3)[C@@H]3C[C@H]5NC(=O)c4cccc(OC(F)F)c43)cn2)C1` [Example 2, cis-3-Amino-3-{5-[(7R,14R)-1-(difluoromethoxy)-5-oxo-5,6,7,14-tetrahydro-7,14-methanobenzimidazo[1,2-b][2,5]benzodiazocin-11-yl]pyrimidin-2-yl}-1-methyl-cyclobutanecarbonitrile], the IC50 was over 30 µM.

`C[C@]1(C#N)C[C@](N)(c2ncc(-c3ccc4nc5n(c4c3)[C@@H]3C[C@H]5NC(=O)c4cccc(OC(F)F)c43)cc2F)C1` [Example 4, cis-3-Amino-3-{5-[(7R,14R)-1-(difluoromethoxy)-5-oxo-5,6,7,14-tetrahydro-7,14-methanobenzimidazo[1,2-b][2,5]benzodiazocin-11-yl]-3-fluoropyridin-2-yl}-1-methyl-cyclobutanecarbonitrile]: the IC50 is over 30 µM. The molecule `CN1C(=O)c2cccc(OC(F)F)c2[C@H]2C[C@@H]1c1nc3ccc(-c4cnc(C5(N)CCC5)nc4)cc3n12` [Example 6, (7R,14R)-11-[2-(1-Aminocyclobutyl)pyrimidin-5-yl]-1-(difluoromethoxy)-6-methyl-6,7-dihydro-7,14-methanobenzimidazo[1,2-b][2,5]benzodiazocin-5(14H)-one] had an IC50 of about 8 µM. On to `C[C@]1(O)C[C@](N)(c2ncc(-c3ccc4nc5n(c4c3)[C@@H]3C[C@H]5NC(=O)c4cccc(OC(F)F)c43)cc2F)C1` [Example 8, (7R,14R)-11-[6-(cis-1-Amino-3-hydroxy-3-methylcyclobutyl)-5-fluoropyridin-3-yl]-1-(difluoromethoxy)-6,7-dihydro-7,14-methanobenzimidazo[1,2-b][2,5]benzodiazocin-5(14H)-one], for which the IC50 was over 30 µM. Consider `C[C@]1(CO)C[C@](N)(c2ncc(-c3ccc4nc5n(c4c3)[C@@H]3C[C@H]5NC(=O)c4cccc(OC(F)F)c43)cc2F)C1` [Example 10, (7R,14R)-11-{6-[cis-1-Amino-3-(hydroxymethyl)-3-methylcyclobutyl]-5-fluoropyridin-3-yl}-1-(difluoromethoxy)-6,7-dihydro-7,14-methanobenzimidazo[1,2-b][2,5]-benzodiazocin-5(14H)-one], for which the half-maximal inhibitory concentration (IC50) was over 30 µM. Consider `N[C@]1(c2ncc(-c3ccc4nc5n(c4c3)[C@@H]3C[C@H]5NC(=O)c4cccc(OC(F)F)c43)cc2F)C[C@@](O)(C(F)(F)F)C1` [Example 13, (7R,14R)-11-{6-[cis-1-Amino-3-hydroxy-3-(trifluoromethyl)cyclobutyl]-5-fluoropyridin-3-yl}-1-(difluoromethoxy)-6,7-dihydro-7,14-methanobenzimidazo[1,2-b][2,5]-benzodiazocin-5(14H)-one], for which the half-maximal inhibitory concentration (IC50) is over 30 µM. Then `[2H]C([2H])(O)[C@]1(C)C[C@@](N)(c2ncc(-c3ccc4nc5n(c4c3)[C@@H]3C[C@H]5NC(=O)c4cccc(OC(F)F)c43)cn2)C1` [Example 14, (7R,14R)-11-(2-{cis-1-Amino-3-[hydroxy(dideutero)methyl]-3-methylcyclobutyl}-pyrimidin-5-yl)-1-(difluoromethoxy)-6,7-dihydro-7,14-methanobenzimidazo[1,2-b][2,5]-benzodiazocin-5(14H)-one], with over 30 µM.

`C[C@]1(CO)C[C@](N)(c2ncc(-c3ccc4nc5n(c4c3)[C@@H]3C[C@H]5NC(=O)c4cccc(OC(F)F)c43)cn2)C1` [Example 15, (7R,14R)-11-{2-[cis-1-Amino-3-(hydroxymethyl)-3-methylcyclobutyl]pyrimidin-5-yl}-1-(difluoromethoxy)-6,7-dihydro-7,14-methanobenzimidazo[1,2-b][2,5]benzodiazocin-5(14H)-one] displayed an IC50 of over 30 µM.

In turn, `[2H]C([2H])(O)[C@]1(C)C[C@@](N)(c2ncc(-c3ccc4nc5n(c4c3)[C@@H]3C[C@H]5NC(=O)c4cccc(OC(F)F)c43)cc2F)C1` [Example 16, (7R,14R)-11-(6-{cis-1-Amino-3-[hydroxy(dideutero)methyl]-3-methylcyclobutyl}-5-fluoropyridin-3-yl)-1-(difluoromethoxy)-6,7-dihydro-7,14-methanobenzimidazo[1,2-b]-[2,5]benzodiazocin-5(14H)-one] showed an IC50 of over 30 µM.

Values taken from patent US10980814B2, “Fused pentacyclic imidazole derivatives as modulators of TNF activity” (UCB Biopharma SRL, priority 2017, dated 2021).
